# Experimental data: article PMC9572521, “Synthesis, Docking Studies and Pharmacological Evaluation of Serotoninergic Ligands Containing a 5-Norbornene-2-Carboxamide Nucleus” (Molecules, 2022)
# Like-named read-outs stand apart in the source and are kept apart here.
# What was measured:
# D2 receptor = target: T1, D2 receptor (Rattus norvegicus, UniProt P61169); experiment: Functional D2 receptor [35S]GTPγS assay (antagonist mode vs dopamine; basal for agonism); assay type: biochemical; conditions: against 40 µM dopamine, rat striatal homogenate;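 further: [35S]GTPγS binding counted by scintillation after 60 min at 30 °C, nonspecific binding defined with 100 µM unlabeled GTPγS, inhibition curves fitted by one-site nonlinear regression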
# T1 construct: 15μg/mL of striatal homogenate was incubated in triplicate; from tissue; host or cells: rat striatum homogenate
# 5-HT1A receptor = target: T2, 5-HT1A receptor (Rattus norvegicus, UniProt P19327); experiment: Functional 5-HT1A receptor [35S]GTPγS assay (agonist mode); assay type: biochemical; conditions: for Emax: read-out: 5-HT1A Receptor G-Protein Stimulation Emax (%) ± SEM;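 on all read-outs here: male Sprague-Dawley rat hippocampal membranes incubated 90 min at 37 °C, bound label counted by scintillation after filtration, non-specific binding defined with 100 µM unlabeled GTPγS, one-site curve fit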
# T2 construct: 15 μg/mL of hippocampus homogenate was incubated in triplicate with 0.8 nM; from tissue; host or cells: rat hippocampus homogenate
# T2 sequence (P19327 1-422): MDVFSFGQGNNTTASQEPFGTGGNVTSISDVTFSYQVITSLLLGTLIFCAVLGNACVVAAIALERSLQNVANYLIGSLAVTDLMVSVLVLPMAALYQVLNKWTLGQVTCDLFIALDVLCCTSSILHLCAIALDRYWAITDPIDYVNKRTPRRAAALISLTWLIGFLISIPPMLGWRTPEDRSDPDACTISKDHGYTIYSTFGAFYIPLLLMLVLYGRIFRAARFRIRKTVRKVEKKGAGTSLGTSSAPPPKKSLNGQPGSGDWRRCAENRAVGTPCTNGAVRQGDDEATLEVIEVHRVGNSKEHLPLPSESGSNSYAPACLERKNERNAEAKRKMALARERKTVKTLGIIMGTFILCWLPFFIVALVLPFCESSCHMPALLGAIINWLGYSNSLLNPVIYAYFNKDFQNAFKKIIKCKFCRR
# human 5-HT2C receptor = target: T3, human 5-HT2C receptor (Homo sapiens, UniProt P28335); experiment: 5-HT2C competition binding assay ([3H]mesulergine, transfected cell membranes)
# T3 sequence (P28335 33-458): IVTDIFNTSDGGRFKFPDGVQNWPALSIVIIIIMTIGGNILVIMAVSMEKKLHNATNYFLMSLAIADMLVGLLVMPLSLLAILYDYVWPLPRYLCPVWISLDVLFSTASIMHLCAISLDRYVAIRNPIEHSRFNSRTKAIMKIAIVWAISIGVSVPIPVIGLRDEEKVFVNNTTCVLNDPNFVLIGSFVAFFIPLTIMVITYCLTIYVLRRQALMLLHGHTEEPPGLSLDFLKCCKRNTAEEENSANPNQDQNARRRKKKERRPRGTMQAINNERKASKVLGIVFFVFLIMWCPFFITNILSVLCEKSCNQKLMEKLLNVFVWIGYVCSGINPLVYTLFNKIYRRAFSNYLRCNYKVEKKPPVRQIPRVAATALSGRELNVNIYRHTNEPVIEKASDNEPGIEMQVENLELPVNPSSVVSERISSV
# 5-HT2A receptor = 5-HT2A receptor (Rattus norvegicus, UniProt P14842); experiment: 5-HT2A competition binding assay ([3H]ketanserin, frontal cortex homogenates)
# [1] = read-out: D2 receptor antagonistic activity IC50 (95% CI)
# [2] = read-out: D2 receptor antagonistic activity pIC50 (M ± SEM) (converted)
# [3] = [35S]GTPγS, rat hippocampus homogenate, read-out: 5-HT1A Receptor G-Protein Stimulation EC50 (95% CI)
# [4] = [35S]GTPγS, rat hippocampus homogenate
# [5] = [3H]mesulergine, human 5-HT2C membranes, read-out: 5-HT2C Ki (95% CI)
# [6] = [3H]mesulergine, human 5-HT2C membranes, ± SEM, read-out: 5-HT2C pKi (converted)
# [7] = [35S]GTPγS, rat hippocampus homogenate, ± SEM
# Chain of 5-HT2A receptor (P14842 whole entry): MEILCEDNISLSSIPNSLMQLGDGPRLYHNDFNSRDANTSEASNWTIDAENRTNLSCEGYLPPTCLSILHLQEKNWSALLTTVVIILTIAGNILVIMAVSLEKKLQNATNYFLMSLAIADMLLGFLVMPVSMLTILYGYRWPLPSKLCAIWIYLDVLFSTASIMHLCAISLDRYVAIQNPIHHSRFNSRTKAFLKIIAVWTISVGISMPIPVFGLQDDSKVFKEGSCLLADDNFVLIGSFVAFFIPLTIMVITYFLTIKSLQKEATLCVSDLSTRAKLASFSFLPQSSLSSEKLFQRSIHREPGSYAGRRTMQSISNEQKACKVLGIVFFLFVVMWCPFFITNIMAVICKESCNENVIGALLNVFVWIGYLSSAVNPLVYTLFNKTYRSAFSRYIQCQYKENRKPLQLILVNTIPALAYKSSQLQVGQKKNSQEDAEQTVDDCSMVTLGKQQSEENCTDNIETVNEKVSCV
# T1 sequence (P61169 whole entry): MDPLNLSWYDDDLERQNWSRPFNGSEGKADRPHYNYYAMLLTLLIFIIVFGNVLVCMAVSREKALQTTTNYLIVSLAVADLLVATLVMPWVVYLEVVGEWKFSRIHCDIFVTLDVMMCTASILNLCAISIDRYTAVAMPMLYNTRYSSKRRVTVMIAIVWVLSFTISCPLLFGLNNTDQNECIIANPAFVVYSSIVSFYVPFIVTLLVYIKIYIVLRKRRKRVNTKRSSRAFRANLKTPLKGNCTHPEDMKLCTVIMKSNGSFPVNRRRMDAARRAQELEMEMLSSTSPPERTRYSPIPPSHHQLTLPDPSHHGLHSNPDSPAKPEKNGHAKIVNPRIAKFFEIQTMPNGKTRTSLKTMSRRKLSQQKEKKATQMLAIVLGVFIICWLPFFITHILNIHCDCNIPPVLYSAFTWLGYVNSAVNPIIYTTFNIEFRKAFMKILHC
SMILES,IC50 (D2 receptor; [1]),EC50 (5-HT1A receptor; [3]),Emax (5-HT1A receptor; [4]),Ki (human 5-HT2C receptor; [5]),Ki (5-HT2A receptor; read-out: 5-HT2A Ki (95% CI)),5-HT1A Receptor G-Protein Stimulation Emax (%) ± SEM (5-HT1A receptor; [4]),further results
"COc1ccccc1N1CCN(CCCNC(=O)C2CC3C=CC2C3)CC1 (single isomer, unassigned) [Norbo-6, endo-N-(3-(4-(2-methoxyphenyl)piperazin-1-yl)propyl)bicyclo[2.2.1]hept-5-ene-2-carboxamide]",59500 nM,3220 nM,131 ± 5.5%,1030 nM,88.7 nM,,IC50 (D2 receptor; [2]): 60300 nM
"CCCN(CCC)C1CCc2cccc(O)c2C1 (stereo not shown) [Norbo 8-OH-DPAT, reference compound]",,,,,,,Emax (5-HT1A receptor): 154 ± 2.3%
"O=C(NCCCN1CCN(c2ccccc2)CC1)C1CC2C=CC1C2 (stereo not drawn) [Norbo-1, Exo-N-(3-(4-phenylpiperazin-1-yl)propyl)bicyclo[2.2.1]hept-5-ene-2-carboxamide]",101000 nM,1200 nM,174 ± 4.15%,3890 nM,74 nM,,
"O=C(NCCCN1CCN(c2ccccc2)CC1)C1CC2C=CC1C2 (stereo not drawn) [Norbo-2, endo-N-(3-(4-phenylpiperazin-1-yl)propyl)bicyclo[2.2.1]hept-5-ene-2-carboxamide]",106000 nM,1630 nM,,1610 nM,99.1 nM,188 ± 4.9 %,"EC50 (5-HT1A receptor; [35S]GTPγS, rat hippocampus homogenate, ± SEM, read-out: 5-HT1A Receptor G-Protein Stimulation pEC50 (converted)): 1660 nM"
"Cc1cccc(N2CCN(CCCNC(=O)C3CC4C=CC3C4)CC2)c1C (stereo not drawn) [Norbo-3, Exo-N-(3-(4-(2,3-dimethylphenyl)piperazin-1-yl)propyl)bicyclo[2.2.1]hept-5-ene-2-carboxamide]",71000 nM,177 nM,185 ± 3.2%,250 nM,23.5 nM,,
"COc1ccc(N2CCN(CCCNC(=O)C3CC4C=CC3C4)CC2)cc1 (stereo not drawn) [Norbo-7, Exo-N-(3-(4-(4-methoxyphenyl)piperazin-1-yl)propyl)bicyclo[2.2.1]hept-5-ene-2-carboxamide]",51500 nM,348 nM,169 ± 3.5%,51.3 nM,105 nM,,
"COc1ccc(N2CCN(CCCNC(=O)C3CC4C=CC3C4)CC2)cc1 (stereo not drawn) [Norbo-8, endo-N-(3-(4-(4-methoxyphenyl)piperazin-1-yl)propyl) bicyclo[2.2.1]hept-5-ene-2-carboxamide]",60400 nM,165 nM,,398 nM,127 nM,167 ± 2.3 %,
"O=C(NCCCN1CCN(c2ccccc2Cl)CC1)C1CC2C=CC1C2 (stereo not drawn) [Norbo-9, Exo-N-(3-(4-(2-chlorophenyl)piperazin-1-yl)propyl) bicyclo[2.2.1]hept-5-ene-2-carboxamide]",20100 nM,207 nM,149 ± 3.1%,2790 nM,109 nM,,IC50 (D2 receptor; [2]): 20400 nM
"O=C(NCCCN1CCN(c2ccccc2Cl)CC1)C1CC2C=CC1C2 (stereo not drawn) [Norbo-10, endo-N-(3-(4-(2-chlorophenyl)piperazin-1-yl)propyl)bicyclo[2.2.1]hept-5-ene-2-carboxamide]",21500 nM,198 nM,,< 40 nM,254 nM,163 ± 2.4 %,Ki (human 5-HT2C receptor; [6]): 13.5 nM
"O=C(NCCCN1CCN(c2ccc(Cl)cc2)CC1)C1CC2C=CC1C2 (stereo not drawn) [Norbo-11, Exo-N-(3-(4-(4-chlorophenyl)piperazin-1-yl)propyl)bicyclo[2.2.1]hept-5-ene-2-carboxamide]",31200 nM,,,< 40 nM,149 nM,no activity,"IC50 (D2 receptor; [2]): 31600 nM; 5-HT1A Receptor G-Protein Stimulation EC50 (95% CI, nM) (5-HT1A receptor; [4]): no activity; 5-HT1A Receptor G-Protein Stimulation pEC50 (5-HT1A receptor; [7]): no activity; Ki (human 5-HT2C receptor; [6]): 30.9 nM"
"O=C(NCCCN1CCN(c2ccc(Cl)cc2)CC1)C1CC2C=CC1C2 (stereo not drawn) [Norbo-12, endo-N-(3-(4-(4-chlorophenyl)piperazin-1-yl)propyl)bicyclo[2.2.1]hept-5-ene-2-carboxamide]",100000 nM,1870 nM,127 ± 5.1%,34900 nM,227 nM,,IC50 (D2 receptor; [2]): 102000 nM
"O=C(NCCCN1CCN(c2ccc(Cl)c(Cl)c2)CC1)C1CC2C=CC1C2 (stereo not drawn) [Norbo-13, Exo-N-(3-(4-(3,4-dichlorophenyl)piperazin-1-yl)propyl)bicyclo[2.2.1]hept-5-ene-2-carboxamide]",68900 nM,,,122 nM,28.8 nM,no activity,"5-HT1A Receptor G-Protein Stimulation EC50 (95% CI, nM) (5-HT1A receptor; [4]): no activity; 5-HT1A Receptor G-Protein Stimulation pEC50 (5-HT1A receptor; [7]): no activity"
"O=C(NCCCN1CCN(c2ccccc2F)CC1)C1CC2C=CC1C2 (stereo not drawn) [Norbo-15, Exo-N-(3-(4-(2-fluorophenyl)piperazin-1-yl)propyl)bicyclo[2.2.1]hept-5-ene-2-carboxamide]",62700 nM,926 nM,,31 nM,82.6 nM,161 ± 4.5%,Ki (human 5-HT2C receptor; [6]): 31.6 nM
"O=C(NCCCN1CCN(c2ccccn2)CC1)C1CC2C=CC1C2 (stereo not drawn) [Norbo-21, Exo-N-(3-(4-(pyridin-2-yl)piperazin-1-yl)propyl)bicyclo[2.2.1]hept-5-ene-2-carboxamide]",181000 nM,588 nM,181 ± 2.5%,1340 nM,258 nM,,
"O=C(NCCCN1CCN(c2ccccn2)CC1)C1CC2C=CC1C2 (stereo not drawn) [Norbo-22, endo-N-(3-(4-(pyridin-2-yl)piperazin-1-yl)propyl)bicyclo[2.2.1]hept-5-ene-2-carboxamide]",125000 nM,782 nM,,873 nM,,186 ± 4.4 %,"Ki (5-HT2A receptor; ± SEM, read-out: 5-HT2A pKi (converted)): 355 nM"
"O=C(NCCCN1CCN(c2ncccn2)CC1)C1CC2C=CC1C2 (stereo not drawn) [Norbo-23, Exo-N-(3-(4-(pyrimidin-2-yl)piperazin-1-yl)propyl)bicyclo[2.2.1]hept-5-ene-2-carboxamide]",255000 nM,2400 nM,181 ± 4.1%,353 nM,1080 nM,,
"COc1cc(OC)c(C(=O)CCCCN2CCC3(CC2)NC(=O)NC3=O)cc1NS(=O)(=O)c1ccc(C(F)(F)F)cc1 [RS102221, reference compound]",,,,,,,5-HT2C pKi (human 5-HT2C receptor): 8.25 ± 0.21; Ki (human 5-HT2C receptor; read-out: 5-HT2C Ki (95% CI)): 5.56 nM
